According to patent publication US9814699B2, “Chemical compounds” (Janssen Pharmaceuticals, Inc., priority 2009, dated 2017):

Experiments:
[1] = tested on: HCV genotype 1a subgenomic replicon; assay: HCV replicon assay, genotype 1a subgenomic replicon (luciferase); assay type: cell-based; conditions: Hepatitis C virus; genotype 1a replicon stable cell line, luciferase activity measured 48 hours later; read-out: Replicon 1A pEC50 (converted)
Description: (§1) Protocol for Testing and Data Analysis of Compounds in the HCV Replicon Assay
(§2) Compounds were assayed for activity against HCV using the genotype 1a and 1b subgenomic replicon model systems. Stable cell lines bearing the genotype 1a and 1b replicons were used for screening of compounds. Both replicons are bicistronic and contain the firefly luciferase gene. The ET cell line is stably transfected with RNA transcripts harboring a I389luc-ubi-neo/NS3-3′/ET replicon with firefly luciferase-ubiquitin-neomycin phosphotransferase fusion protein and EMCV-IRES driven NS3-5B polyprotein containing the cell culture adaptive mutations (E1202G; T1280I; K1846T) (Krieger at al, 2001 and unpublished). The genotype 1a replicon is a stable cell line licensed from Apath LLC, modified to contain the firefly luciferase gene. The cells were grown in DMEM, supplemented with 10% fetal calf serum, 2 mM Glutamine, Penicillin (100 IU/mL)/Streptomycin (100 μg/mL), 1× nonessential amino acids, and 250-500 μg/mL G418 (“Geneticin”). They were all available through Life Technologies (Bethesda, Md.). The cells were plated at 5×10^3 cells/well in 384 well plates containing compounds. The final concentration of compounds ranged between 0.03 pM to 50 μm and the final DMSO concentration of 0.5-1%.
(§3) Luciferase activity was measured 48 hours later by adding a Steady glo reagent (Promega, Madison, Wis.). Percent inhibition of replication data was plotted relative to no compound control. Under the same condition, cytotoxicity of the compounds was determined using cell titer glo (Promega, Madison, Ws). EC50s were determined from an 11 point dose response curve using 3-4-fold serial dilution for each compound, which spans a concentration range >1000 fold. The level of inhibition for each compound was determined with Activity Base or with BioAssay plus the Excel XC50 module. Percent inhibition was determined with the following equation where the cross-talk corrected value is the value from the test well, the compound positive control mean is the average value of the wells with no compound present, and the DMSO negative control mean is the average value of the wells with DMSO but no cells present.
(§4) [formula] These normalized values are exported to EC50 where they are plotted against the molar compound concentrations using the standard four parameter logistic equation: […]

[2] = tested on: HCV genotype 1b subgenomic replicon; assay: HCV replicon assay, genotype 1b subgenomic replicon (ET cell line, luciferase); assay type: cell-based; conditions: Hepatitis C virus; genotype 1b replicon ET cell line, luciferase activity measured 48 hours later; read-out: Replicon 1B pEC50 (converted)
Description: as §1, §2, §3, §4

For `CC[C@H](NC(=O)OC)C(=O)N1CC2(C[C@H]1c1nc(-c3ccc(-c4ccc(-c5c[nH]c([C@@H]6CCCN6C(=O)[C@@H](NC(=O)OC)C(C)C)n5)cc4)cc3)c[nH]1)SCCS2` [Example 13, methyl[(1S)-2-methyl-1-({(2S)-2-[4-(4′-{2-[(8S)-7-((2S)-2-{[(methyloxy)carbonyl]amino}butanoyl)-1,4-dithia-7-azaspiro[4.4]non-8-yl]-1H-imidazol-4-yl}-4-biphenylyl)-1H-imidazol-2-yl]-1-pyrrolidinyl}carbonyl)propyl]carbamate], the EC50 [1] was 0.0631 nM and the EC50 [2] was 0.00398 nM.

`COC(=O)NCC(=O)N1CC2(C[C@H]1c1ncc(-c3ccc(-c4ccc(-c5cnc([C@@H]6CCCN6C(=O)[C@@H](NC(=O)OC)C(C)C)[nH]5)cc4)cc3)[nH]1)SCCS2` [Example 14, methyl [(1S)-2-methyl-1-({(2S)-2-[4-(4′-{2-[(8S)-7-({[(methyloxy)carbonyl]amino}acetyl)-1,4-dithia-7-azaspiro[4.4]non-8-yl]-1H-imidazol-4-yl}-4-biphenylyl)-1H-imidazol-2-yl]-1-pyrrolidinyl}carbonyl)propyl]carbamate] was tested, and the EC50 [1] was 0.631 nM and the EC50 [2] was 0.00501 nM.

Compound `COC(=O)N[C@H](C(=O)N1CC2(CCOCC2)CC1c1ncc(-c2ccc(-c3ccc(-c4cnc([C@@H]5CCCN5C(=O)[C@@H](NC(=O)OC)C(C)C)[nH]4)cc3)cc2)[nH]1)C(C)C` (stereo partly drawn) [Example 15, methyl [(1S)-2-methyl-1-({(2S)-2-[4-(4′-{2-[2-((2S)-3-methyl-2-{[(methyloxy)carbonyl]amino}butanoyl)-8-oxa-2-azaspiro[4.5]dec-3-yl]-1H-imidazol-4-yl}-4-biphenylyl)-1H-imidazol-2-yl]-1-pyrrolidinyl}carbonyl)propyl]carbamate] has an EC50 [1] of 0.0631 nM and an EC50 [2] of 0.0158 nM.

In the case of `COC(=O)N[C@H](C(=O)N1CC2(CCS(=O)(=O)CC2)CC1c1ncc(-c2ccc(-c3ccc(-c4cnc([C@@H]5CCCN5C(=O)[C@@H](NC(=O)OC)C(C)C)[nH]4)cc3)cc2)[nH]1)C(C)C` (stereo partly drawn) [Example 16, methyl [(1S)-2-methyl-1-({(2S)-2-[4-(4′-{2-[2-((2S)-3-methyl-2-{[(methyloxy)carbonyl]amino}butanoyl)-8,8-dioxido-8-thia-2-azaspiro[4.5]dec-3-yl]-1H-imidazol-4-yl}-4-biphenylyl)-1H-imidazol-2-yl]-1-pyrrolidinyl}carbonyl)propyl]carbamate], the EC50 [1] was 0.398 nM and the EC50 [2] was 0.0398 nM.

`COC(=O)N[C@H](C(=O)N1CCC[C@H]1c1ncc(-c2ccc(-c3ccc(-c4cnc([C@@H]5CC6(CCC(F)(F)CC6)CN5C(=O)[C@@H](NC(=O)OC)C(C)C)[nH]4)cc3)cc2)[nH]1)C(C)C` [Example 17, methyl [(1S)-1-({(2S)-2-[4-(4′-{2-[8,8-difluoro-2-((2S)-3-methyl-2-{[(methyloxy)carbonyl]amino}butanoyl)-2-azaspiro[4.5]dec-3-yl]-1H-imidazol-4-yl}-4-biphenylyl)-1H-imidazol-2-yl]-1-pyrrolidinyl}carbonyl)-2-methylpropyl]carbamate] was tested, and the EC50 [1] was 0.0398 nM and the EC50 [2] was 0.00251 nM.

`COC(=O)N[C@H](C(=O)N1CC2(CCOCC2)C[C@H]1c1nc(-c2ccc(-c3ccc(-c4cnc([C@@H]5CC6(CCOCC6)CN5C(=O)[C@@H](NC(=O)OC)C(C)C)[nH]4)cc3)cc2)c[nH]1)C(C)C` [Example 18, dimethyl (4,4′-biphenyldiylbis{1H-imidazole-4,2-diyl(3S)-8-oxa-2-azaspiro[4.5]decane-3,2-diyl[(2S)-3-methyl-1-oxo-1,2-butanediyl]})biscarbamate] showed an EC50 [1] of 0.02 nM and an EC50 [2] of 0.0126 nM.

With `COC(=O)N[C@H](C(=O)N1CC2(CCN(C(=O)OC(C)(C)C)CC2)CC1c1ncc(-c2ccc(-c3ccc(-c4cnc([C@@H]5CCCN5C(=O)[C@@H](NC(=O)OC)C(C)C)[nH]4)cc3)cc2)[nH]1)C(C)C` (stereo partly drawn) [Example 19, 1,1-dimethylethyl 2-{N-[(methyloxy)carbonyl]-L-valyl}-3-(4-{4′-[2-((2S)-1-{N-[(methyloxy)carbonyl]-L-valyl}-2-pyrrolidinyl)-1H-imidazol-4-yl]-4-biphenylyl}-1H-imidazol-2-yl)-2,8-diazaspiro[4.5]decane-8-carboxylate] the EC50 [1] was 10 nM and the EC50 [2] was 0.0398 nM.

For `COC(=O)N[C@H](C(=O)N1CC2(CCNCC2)CC1c1ncc(-c2ccc(-c3ccc(-c4cnc([C@@H]5CCCN5C(=O)[C@@H](NC(=O)OC)C(C)C)[nH]4)cc3)cc2)[nH]1)C(C)C` (stereo partly drawn) [Example 20, methyl [(1S)-2-methyl-1-({(2S)-2-[4-(4′-{2-[2-((2S)-3-methyl-2-{[(methyloxy)carbonyl]amino}butanoyl)-2,8-diazaspiro[4.5]dec-3-yl]-1H-imidazol-4-yl}-4-biphenylyl)-1H-imidazol-2-yl]-1-pyrrolidinyl}carbonyl)propyl]carbamate], the EC50 [1] was > 31.6 nM and the EC50 [2] was 1.58 nM.

`COC(=O)N[C@H](C(=O)N1CC2(CCN(C(C)=O)CC2)CC1c1ncc(-c2ccc(-c3ccc(-c4cnc([C@@H]5CCCN5C(=O)[C@@H](NC(=O)OC)C(C)C)[nH]4)cc3)cc2)[nH]1)C(C)C` (stereo partly drawn) [Example 21, methyl [(1S)-1-({(2S)-2-[4-(4′-{2-[8-acetyl-2-((2S)-3-methyl-2-{[(methyloxy)carbonyl]amino}butanoyl)-2,8-diazaspiro[4.5]dec-3-yl]-1H-imidazol-4-yl}-4-biphenylyl)-1H-imidazol-2-yl]-1-pyrrolidinyl}carbonyl)-2-methylpropyl]carbamate] gave an EC50 [1] of 10 nM and an EC50 [2] of 0.2 nM.

Compound `COC(=O)N[C@H](C(=O)N1CC2(CCN(C(=O)OC)CC2)CC1c1ncc(-c2ccc(-c3ccc(-c4cnc([C@@H]5CCCN5C(=O)[C@@H](NC(=O)OC)C(C)C)[nH]4)cc3)cc2)[nH]1)C(C)C` (stereo partly drawn) [Example 22, methyl 2-{N-[(methyloxy)carbonyl]-L-valyl}-3-(4-{4′-[2-((2S)-1-{N-[(methyloxy)carbonyl]-L-valyl}-2-pyrrolidinyl)-1H-imidazol-4-yl]-4-biphenylyl}-1H-imidazol-2-yl)-2,8-diazaspiro[4.5]decane-8-carboxylate] has an EC50 [1] of 0.794 nM and an EC50 [2] of 0.0158 nM.

For `COC(=O)N[C@H](C(=O)N1CC2(CC1c1ncc(-c3ccc(-c4ccc(-c5cnc([C@@H]6CCCN6C(=O)[C@@H](NC(=O)OC)C(C)C)[nH]5)cc4)cc3)[nH]1)CN(C(=O)OC(C)(C)C)C2)C(C)C` (stereo partly drawn) [Example 23, 1,1-dimethylethyl 6-{N-[(methyloxy)carbonyl]-L-valyl}-7-(4-{4′-[2-((2S)-1-{N-[(methyloxy)carbonyl]-L-valyl}-2-pyrrolidinyl)-1H-imidazol-4-yl]-4-biphenylyl}-1H-imidazol-2-yl)-2,6-diazaspiro[3.4]octane-2-carboxylate], the EC50 [1] was 1.26 nM and the EC50 [2] was 0.01 nM.

Compound `COC(=O)N[C@H](C(=O)N1CC2(CNC2)CC1c1ncc(-c2ccc(-c3ccc(-c4cnc([C@@H]5CCCN5C(=O)[C@@H](NC(=O)OC)C(C)C)[nH]4)cc3)cc2)[nH]1)C(C)C` (stereo partly drawn) [Example 24, methyl [(1S)-2-methyl-1-({(2S)-2-[4-(4′-{2-[6-((2S)-3-methyl-2-{[(methyloxy)carbonyl]amino}butanoyl)-2,6-diazaspiro[3.4]oct-7-yl]-1H-imidazol-4-yl}-4-biphenylyl)-1H-imidazol-2-yl]-1-pyrrolidinyl}carbonyl)propyl]carbamate] has an EC50 [1] of 3.16 nM and an EC50 [2] of 0.126 nM.

`COC(=O)N[C@H](C(=O)N1CC2(CC1c1ncc(-c3ccc(-c4ccc(-c5cnc([C@@H]6CCCN6C(=O)[C@@H](NC(=O)OC)C(C)C)[nH]5)cc4)cc3)[nH]1)CN(C(C)=O)C2)C(C)C` (stereo partly drawn) [Example 25, methyl [(1S)-1-({(2S)-2-[4-(4′-{2-[2-acetyl-6-((2S)-3-methyl-2-{[(methyloxy)carbonyl]amino}butanoyl)-2,6-diazaspiro[3.4]oct-7-yl]-1H-imidazol-4-yl}-4-biphenylyl)-1H-imidazol-2-yl]-1-pyrrolidinyl}carbonyl)-2-methylpropyl]carbamate] was tested, and the EC50 [1] was 1.26 nM and the EC50 [2] was 0.158 nM.

Work on `COC(=O)N[C@H](C(=O)N1CC2(CC1c1ncc(-c3ccc(-c4ccc(-c5cnc([C@@H]6CCCN6C(=O)[C@@H](NC(=O)OC)C(C)C)[nH]5)cc4)cc3)[nH]1)CN(C(=O)OC)C2)C(C)C` (stereo partly drawn) [Example 26, methyl 6-{N-[(methyloxy)carbonyl]-L-valyl}-7-(4-{4′-[2-((2S)-{N-[(methyloxy)carbonyl]-L-valyl}-2-pyrrolidinyl)-1H-imidazol-4-yl]-4-biphenylyl}-1H-imidazol-2-yl)-2,6-diazaspiro[3.4]octane-2-carboxylate] yielded an EC50 [1] of 2 nM and an EC50 [2] of 0.0501 nM.
